Measured values: paper PMC11701329, “Inhibition of the polyol pathway by Ducrosia anethifolia extract: plausible implications for diabetic retinopathy treatment” (Frontiers in Pharmacology, 2024)
Values after ≈ are worked out from the molar mass of the structure shown. Values belong to the molecule of their own block, whether it stands above or below them.

What was measured:
[1] = biological target: T1, SD (sorbitol dehydrogenase); assay: absorbance change at […] nm (NAD+ reduction); format: biochemical; details: 0.5 mM NAD+, 100 mM sorbitol, 100 mM Tris-HCl pH 9.0
T1 construct: gene SORD; purchased from Sigma-Aldrich; human recombinant cannot be excluded

[2] = test system: O=CC(O)CO; assay: purified protein; details: no extract, 0.15 mM NADPH, DL-glyceraldehyde 5-25 mM, 100 mM sodium phosphate pH 6.2
[3] = test system: T1, SD (sorbitol dehydrogenase); assay: absorbance change at […] nm, Lineweaver-Burk; format: biochemical; details: no extract; 0.5 mM NAD+, sorbitol 50-250 mM, 100 mM Tris-HCl pH 9.0

IC50 [1]: 8.14 ± 2.27 µg/mL (≈ 26.9 µM)
Molecule: O=c1c(O)c(-c2ccc(O)c(O)c2)oc2cc(O)cc(O)c12 [quercetin]

Molecule: human recombinant AR (aldose reductase) (Homo sapiens)
Km [2]: 5.51 mM
Vmax [2]: 0.069 µM/min

Km [3]: 44.7 mM
Molecule: OC[C@@H](O)[C@@H](O)[C@H](O)[C@@H](O)CO [sorbitol]
